According to US20130338106A1, “COMPOUNDS INHIBITING LEUCINE-RICH REPEAT KINASE ENZYME ACTIVITY” (priority 2011, published 2013):

Experiments:
Assay type in all cases: biochemical
[1] = target: T1, LRRK2 G2019S mutant kinase (Homo sapiens, UniProt Q5S007, G2019S); assay: LRRK2 G2019S LanthaScreen TR-FRET kinase assay; details: LRRK2 G2019S GST-tagged protein, 100 μM ATP, LRRKtide substrate; read-out: IC50 (potency)
T1 construct: GST; purchased Invitrogen PV4882
Summary of the method: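 GST-tagged enzyme with 75 nM fluorescein-ERM (LRRKtide) substrate, 100 μM ATP, 2 mM DTT, 1% DMSO final; 1 h at room temperature. Stopped with EDTA and Tb-anti-pERM antibody, 30 min, then TR-FRET read (ex 340, em 520/495 nm); IC50 and maximal inhibition derived.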

[2] = target: T2, ITK (Homo sapiens, UniProt Q08881); assay: ProfilerPro Kinase Selectivity, ITK; details: tested at 10 uM, read-out: percent inhibition of the kinase activity
T2 construct: purchased Caliper LifeSciences
Procedure: (§1) Kinome selectivity profiling was performed using two example compounds according to the manufacturer's instructions using Caliper LifeSciences' ProfilerPro Kinase Selectivity Assay Kits. Compounds prepared in Examples 1 and 7 were tested at 10 uM and data were recorded using the Caliper LabChip® EZ Reader™. Each compounds' percent inhibition of the kinase activity measured in this manner is reported in the following lists.

[3] = target: T3, PIM2 (Homo sapiens, UniProt Q9P1W9); assay: ProfilerPro Kinase Selectivity, PIM2; details: tested at 10 uM, read-out: percent inhibition of the kinase activity
T3 construct: purchased Caliper LifeSciences
Procedure: as §1

[4] = target: T4, CK1G3 (Homo sapiens, UniProt Q9Y6M4); assay: ProfilerPro Kinase Selectivity, CK1G3; details: tested at 10 uM, read-out: percent inhibition of the kinase activity
T4 construct: purchased Caliper LifeSciences
Procedure: as §1

T4 sequence (Q9Y6M4 whole entry): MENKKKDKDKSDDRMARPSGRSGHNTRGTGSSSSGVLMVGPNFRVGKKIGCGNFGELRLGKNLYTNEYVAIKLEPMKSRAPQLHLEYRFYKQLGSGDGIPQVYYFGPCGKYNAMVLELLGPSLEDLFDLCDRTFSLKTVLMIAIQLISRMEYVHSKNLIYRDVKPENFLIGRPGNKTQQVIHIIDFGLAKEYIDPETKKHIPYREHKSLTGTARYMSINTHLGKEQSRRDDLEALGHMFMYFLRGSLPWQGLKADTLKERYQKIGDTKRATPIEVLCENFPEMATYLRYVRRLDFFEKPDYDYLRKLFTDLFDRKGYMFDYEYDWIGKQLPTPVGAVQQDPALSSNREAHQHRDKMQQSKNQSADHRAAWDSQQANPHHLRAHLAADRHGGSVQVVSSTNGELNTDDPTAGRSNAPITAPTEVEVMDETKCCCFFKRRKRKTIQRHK
T1 sequence (Q5S007 whole entry G2019S): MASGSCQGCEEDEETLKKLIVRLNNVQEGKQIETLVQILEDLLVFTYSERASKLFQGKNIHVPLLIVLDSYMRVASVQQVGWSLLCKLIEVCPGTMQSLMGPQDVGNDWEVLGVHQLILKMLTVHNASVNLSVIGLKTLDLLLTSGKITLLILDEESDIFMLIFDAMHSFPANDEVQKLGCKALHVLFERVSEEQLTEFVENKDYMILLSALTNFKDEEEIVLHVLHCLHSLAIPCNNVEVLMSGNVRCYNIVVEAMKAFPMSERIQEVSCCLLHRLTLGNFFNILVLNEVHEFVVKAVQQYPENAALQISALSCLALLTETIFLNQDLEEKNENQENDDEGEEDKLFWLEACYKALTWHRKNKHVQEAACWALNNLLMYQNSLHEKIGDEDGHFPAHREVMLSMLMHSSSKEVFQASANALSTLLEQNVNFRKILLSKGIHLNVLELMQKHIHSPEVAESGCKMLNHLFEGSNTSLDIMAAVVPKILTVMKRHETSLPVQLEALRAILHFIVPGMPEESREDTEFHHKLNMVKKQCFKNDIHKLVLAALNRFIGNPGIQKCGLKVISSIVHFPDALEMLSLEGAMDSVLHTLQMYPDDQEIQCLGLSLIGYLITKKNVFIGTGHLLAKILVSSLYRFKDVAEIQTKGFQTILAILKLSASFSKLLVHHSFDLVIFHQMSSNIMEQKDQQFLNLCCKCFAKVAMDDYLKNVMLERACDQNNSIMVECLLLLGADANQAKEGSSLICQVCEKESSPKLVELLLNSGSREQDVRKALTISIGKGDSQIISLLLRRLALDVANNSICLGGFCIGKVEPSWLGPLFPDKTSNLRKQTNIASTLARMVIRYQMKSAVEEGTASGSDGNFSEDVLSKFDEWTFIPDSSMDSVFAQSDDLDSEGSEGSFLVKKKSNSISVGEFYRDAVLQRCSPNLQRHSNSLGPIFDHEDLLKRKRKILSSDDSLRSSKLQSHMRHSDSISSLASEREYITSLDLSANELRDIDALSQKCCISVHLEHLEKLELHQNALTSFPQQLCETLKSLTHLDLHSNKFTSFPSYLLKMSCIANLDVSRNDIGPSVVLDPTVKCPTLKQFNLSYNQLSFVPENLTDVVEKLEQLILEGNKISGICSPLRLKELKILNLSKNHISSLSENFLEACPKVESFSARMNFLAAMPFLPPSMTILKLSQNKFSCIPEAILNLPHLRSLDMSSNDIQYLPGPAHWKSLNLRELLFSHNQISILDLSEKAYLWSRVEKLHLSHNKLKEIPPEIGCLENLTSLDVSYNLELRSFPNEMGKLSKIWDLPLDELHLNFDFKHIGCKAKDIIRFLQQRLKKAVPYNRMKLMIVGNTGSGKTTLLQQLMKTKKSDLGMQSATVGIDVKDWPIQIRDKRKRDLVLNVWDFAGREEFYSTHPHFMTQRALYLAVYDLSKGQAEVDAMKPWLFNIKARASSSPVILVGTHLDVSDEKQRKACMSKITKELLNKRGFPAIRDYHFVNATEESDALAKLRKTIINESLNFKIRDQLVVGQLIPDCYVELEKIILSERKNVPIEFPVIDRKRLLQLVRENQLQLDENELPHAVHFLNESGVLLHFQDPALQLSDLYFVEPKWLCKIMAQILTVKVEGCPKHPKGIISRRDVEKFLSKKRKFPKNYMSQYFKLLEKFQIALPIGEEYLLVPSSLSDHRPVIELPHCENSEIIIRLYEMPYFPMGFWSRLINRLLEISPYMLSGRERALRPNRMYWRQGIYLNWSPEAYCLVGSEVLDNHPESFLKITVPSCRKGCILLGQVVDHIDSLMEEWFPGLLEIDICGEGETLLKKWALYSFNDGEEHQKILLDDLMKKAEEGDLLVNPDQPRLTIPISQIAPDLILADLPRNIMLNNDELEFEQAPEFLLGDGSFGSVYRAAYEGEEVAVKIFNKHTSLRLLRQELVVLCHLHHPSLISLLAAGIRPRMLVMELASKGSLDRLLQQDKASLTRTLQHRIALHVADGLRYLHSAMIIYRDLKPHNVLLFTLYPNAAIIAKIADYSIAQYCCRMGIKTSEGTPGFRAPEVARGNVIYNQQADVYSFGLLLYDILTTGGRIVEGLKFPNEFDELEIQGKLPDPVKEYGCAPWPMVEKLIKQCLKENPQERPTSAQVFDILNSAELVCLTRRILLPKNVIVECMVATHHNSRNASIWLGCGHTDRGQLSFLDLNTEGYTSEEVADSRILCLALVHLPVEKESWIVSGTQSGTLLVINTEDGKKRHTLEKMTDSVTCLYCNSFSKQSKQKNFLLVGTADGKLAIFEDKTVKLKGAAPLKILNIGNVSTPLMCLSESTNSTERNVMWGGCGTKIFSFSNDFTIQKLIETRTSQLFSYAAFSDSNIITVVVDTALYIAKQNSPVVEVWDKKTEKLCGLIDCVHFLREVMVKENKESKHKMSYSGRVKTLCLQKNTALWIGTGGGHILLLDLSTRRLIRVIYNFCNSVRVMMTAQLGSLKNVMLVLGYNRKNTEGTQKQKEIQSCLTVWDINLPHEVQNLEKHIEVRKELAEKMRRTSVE
T3 sequence (Q9P1W9 whole entry, species assumed): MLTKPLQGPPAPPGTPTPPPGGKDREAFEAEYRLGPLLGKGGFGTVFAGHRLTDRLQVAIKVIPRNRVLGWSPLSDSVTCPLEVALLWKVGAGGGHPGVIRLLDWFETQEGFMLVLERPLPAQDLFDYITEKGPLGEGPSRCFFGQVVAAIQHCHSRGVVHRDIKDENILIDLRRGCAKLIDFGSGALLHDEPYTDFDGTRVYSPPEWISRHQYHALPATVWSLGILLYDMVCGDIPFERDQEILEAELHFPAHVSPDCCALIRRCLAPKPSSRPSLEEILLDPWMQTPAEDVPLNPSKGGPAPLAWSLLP
T2 sequence (Q08881 whole entry, species assumed): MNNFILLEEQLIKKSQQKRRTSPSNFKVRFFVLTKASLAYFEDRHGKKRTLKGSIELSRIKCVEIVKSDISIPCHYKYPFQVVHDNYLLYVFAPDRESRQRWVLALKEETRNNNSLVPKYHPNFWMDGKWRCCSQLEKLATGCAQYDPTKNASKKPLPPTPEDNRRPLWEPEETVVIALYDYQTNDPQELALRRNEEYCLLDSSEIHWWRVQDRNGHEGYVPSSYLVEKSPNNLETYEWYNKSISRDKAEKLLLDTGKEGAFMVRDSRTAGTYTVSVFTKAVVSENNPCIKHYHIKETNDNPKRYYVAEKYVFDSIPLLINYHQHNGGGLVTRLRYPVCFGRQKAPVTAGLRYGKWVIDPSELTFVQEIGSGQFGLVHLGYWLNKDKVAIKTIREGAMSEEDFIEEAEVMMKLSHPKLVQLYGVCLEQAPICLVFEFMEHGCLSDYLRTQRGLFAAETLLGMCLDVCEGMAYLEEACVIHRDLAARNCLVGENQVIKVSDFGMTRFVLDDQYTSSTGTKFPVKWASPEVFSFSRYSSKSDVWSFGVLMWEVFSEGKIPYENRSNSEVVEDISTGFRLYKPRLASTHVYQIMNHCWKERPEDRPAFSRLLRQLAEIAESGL

Structure (SMILES) | IC50 [1] | inhibition at 10 µM [2] | inhibition at 10 µM [3] | inhibition at 10 µM [4]
CSc1sc(-c2cc[nH]n2)c2c1C(=O)CCC2 [Example 1, 3-(Methylsulfanyl)-1-(1H-pyrazol-3-yl)-6,7-dihydro-2-benzothiophen-4(5H)-one] | 190 nM | 4.8% | 1.6% | 1.1%
CC1(C)CC(=O)c2c(SC3CCCC3)sc(-c3cc[nH]n3)c2C1 [Example 7, 3-(Cyclopentylsulfanyl)-6,6-dimethyl-1-(1H-pyrazol-3-yl)-6,7-dihydro-2-benzothiophen-4(5H)-one] | 93 nM | -2.9% | -1.6% | 7.7%
